Bounds are passed on as bounds.

For this experiment, the system named is hepatocellular carcinoma cell line Hub-7. Nature of the experiment: Cell proliferation assay, Hub-7 (CELL-TITER GLO). Format: cell-based. The following applies: Hub-7 cells, 24 h incubation, cell viability by CELL-TITER GLO, top concentration 10 μM; read-out: EC50, Inhibition of Hub-7 Cell Proliferation. As for the experimental part:
The activity of a compound was determined in a cell proliferation assay using the hepatocellular carcinoma cell line Hub-7. Cells (4,000 cells per well) were seeded in a 96-well tissue culture plate. After incubated overnight, the compound was added at predetermined concentrations, starting with 10 μM and followed by 3-fold serial dilution. After the cells were incubated for 24 h, cell viability was determined using a CELL-TITER GLO® assay. The CELL-TITER GLO® reagent (50 μL) was added to each well and the luminescence was measured by a multimode microplate reader after a brief period of shaking. EC50 values were determined for the compound. The results are summarized in Table 1, wherein A represents a value no greater than 200 nM, B represents a value greater than 200 nM but no greater than 1 μM, C represents a value greater than 1 μM but no greater than 5 μM, and D represents a value greater than 5 μM.
`C#Cc1nc(C(=O)NC2CCN(c3ccccc3)CC2)cs1` [Compound C78, 2-Ethynyl-N-(1-phenylpiperidin-4-yl)thiazole-4-carboxamide]: the EC50 was 200 to 1000 nM.

`C#Cc1nc(C(=O)NCCc2ccc(N)cc2)cs1` [Compound C128, N-(4-Aminophenethyl)-2-ethynylthiazole-4-carboxamide]: the EC50 was in the range of 1000 to 5000 nM.

For the compound `C#Cc1nc(C(=O)NCCc2ccc(-c3cccc4c3CNC4=O)cc2)cs1` [Compound C17, 2-Ethynyl-N-(4-(1-oxoisoindolin-4-yl)phenethyl)thiazole-4-carboxamide], the EC50 is at most 200 nM.

In the case of `C#Cc1nc(C(=O)NCCc2ccc(-c3ccc4ncsc4c3)cc2)cs1` [Compound C42, N-(4-(Benzo[d]thiazol-6-yl)phenethyl)-2-ethynylthiazole-4-carboxamide], the EC50 is 200 to 1000 nM.

Regarding `C#Cc1nc(C(=O)Nc2cccc3cn[nH]c23)cs1` [Compound C134, 2-Ethynyl-N-(11H-indazol-7-yl)thiazole-4-carboxamide], the EC50 is 1000 to 5000 nM.

Turning to `C#Cc1nc(C(=O)NC2Cc3ccccc3C2)cs1` [Compound C62, N-(2,3-Dihydro-1H-inden-2-yl)-2-ethynylthiazole-4-carboxamide], the EC50 lay in the range of 200 to 1000 nM.

For `C#Cc1nc(C(=O)NCCc2ccc(-c3ccccc3S(=O)(=O)NC)cc2)cs1` [Compound C20, 2-Ethynyl-N-(2-(2′-(N-methylsulfamoyl)-[1,1′-biphenyl]-4-yl)ethyl)thiazole-4-carboxamide], the EC50 was 200 to 1000 nM.

With `C#Cc1nc(C(=O)N2CCC(C(=O)OC)CC2)cs1` [Compound D35, Methyl 1-(2-ethynylthiazole-4-carbonyl)piperidine-4-carboxylate], the EC50 was above 5000 nM.

As to `C#Cc1nc(C(=O)NCc2cnn(C)c2)cs1` [Compound C120, 2-Ethynyl-N-((1-methyl-1H-pyrazol-4-yl)methyl)thiazole-4-carboxamide], the EC50 was above 5000 nM.

With `C#Cc1nc(C(=O)NCc2cccc(N)c2)cs1` [Compound C95, N-(3-Aminobenzyl)-2-ethynylthiazole-4-carboxamide], the EC50 lay within 1000 to 5000 nM.

As for `C#Cc1nc(C(=O)NCCc2cccc(-c3cccc4c3CC(=O)N4)c2)cs1` [Compound C27, 2-Ethynyl-N-(3-(2-oxoindolin-4-yl)phenethyl)thiazole-4-carboxamide], the EC50 lay in the range of 200 to 1000 nM.

As for `C#Cc1nc(NC(=O)CCc2ccc(-c3cccc4ncsc34)cc2)cs1` [Compound E1, 3-(4-(benzo[d]thiazol-7-yl)phenyl)-N-(2-ethynylthiazol-4-yl)propanamide], the EC50 fell in the range of 200 to 1000 nM.

For the compound `C#Cc1nc(NC(=O)NCc2ccc(-c3cccc(N4CC[C@H](O)C4)c3)cc2)cs1` [Compound A5, (S)-1-(2-Ethynylthiazol-4-yl)-3-((3′-(3-hydroxypyrrolidin-1-yl)-[1,1′-biphenyl]-4-yl)methyl)urea], the EC50 was in the range of 200 to 1000 nM.

Regarding `C#Cc1nc(C(=O)NCCc2ccc(-c3cccc4c3C(=O)C(=O)N4)cc2)cs1` [Compound C14, N-(4-(2,3-Dioxoindolin-4-yl)phenethyl)-2-ethynylthiazole-4-carboxamide], the EC50 was in the range of 200 to 1000 nM.

`C#Cc1nc(C(=O)N2CCN(c3ccc(-c4cccc5c4cnn5C)cc3)CC2)cs1` [Compound D22, (2-Ethynylthiazol-4-yl)(4-(4-(1-methyl-1H-indazol-4-yl)phenyl)piperazin-1-yl)-methanone]: the EC50 is at most 200 nM.

Turning to `C#Cc1ncc(C(=O)NCc2ccccc2)n1C` [Compound C132, N-Benzyl-2-ethynyl-1-methyl-1H-imidazole-5-carboxamide], the EC50 is above 5000 nM.

Consider `C#Cc1nc(NC(=O)CCc2ccccc2)cs1` [Compound C123, N-(2-Ethynylthiazol-4-yl)-3-phenylpropanamide], for which the EC50 was 200 to 1000 nM.

With `C#Cc1nc(C(=O)NCCc2cccc(-c3cscn3)c2)cs1` [Compound E7, 2-Ethynyl-N-(3-(thiazol-4-yl)phenethyl)thiazole-4-carboxamide], the EC50 was in the range of 1000 to 5000 nM.

Turning to `C#Cc1nc(NC(=O)NCc2ccc(-c3c(C)ccc4c3cnn4C)cc2)cs1` [Compound A15, 1-(4-(1,5-Dimethyl-1H-indazol-4-yl)benzyl)-3-(2-ethynylthiazol-4-yl)urea], the EC50 was at most 200 nM.

For the compound `C#Cc1nc(C(=O)NCCc2ccc(-c3cncs3)cc2)cs1` [Compound C57, 2-Ethynyl-N-(4-(thiazol-5-yl)phenethyl)thiazole-4-carboxamide], the EC50 lay in the range of 200 to 1000 nM.

`C#Cc1nc(C(=O)NCCc2cccc(C(=O)OC)c2)cs1` [Compound C97, Methyl 3-(2-(2-ethynylthiazole-4-carboxamido)ethyl)benzoate]: the EC50 fell in the range of 200 to 1000 nM.

Take `C#Cc1nc(C(=O)NCCc2ccc(-c3cc(C(=O)NC)cc4ncsc34)cc2)cs1` [Compound C9, 7-(4-(2-(2-Ethynylthiazole-4-carboxamido)ethyl)phenyl)-N-methylbenzo[d]-thiazole-5-carboxamide]: the EC50 lay in the range of 200 to 1000 nM.

With `C#Cc1nc(C(=O)NCc2cccc(-c3cccnc3)c2)cs1` [Compound C65, 2-Ethynyl-N-(3-(pyridin-3-yl)benzyl)thiazole-4-carboxamide], the EC50 lay in the range of 1000 to 5000 nM.

Regarding `C#Cc1nc(NC(=O)CCc2ccc(-c3cccc4c3cnn4C)cc2)cs1` [Compound E4, N-(2-Ethynylthiazol-4-yl)-3-(4-(1-methyl-1H-indazol-4-yl)phenyl)propanamide], the EC50 was at most 200 nM.

Regarding `C#Cc1nc(NC(=O)N2CCN(c3ccc(-c4cccc5ncsc45)cc3)CC2)cs1` [Compound B5, 4-(4-(Benzo[d]thiazol-7-yl)phenyl)-N-(2-ethynylthiazol-4-yl)piperazine-1-carboxamide], the EC50 is at most 200 nM.

Consider `C#Cc1nc(C(=O)NCCc2ccc(-c3cccc4cnccc34)cc2)cs1` [Compound C21, 2-Ethynyl-N-(4-(isoquinolin-5-yl)phenethyl)thiazole-4-carboxamide], for which the EC50 is at most 200 nM.

For `C#Cc1nc(NC(=O)N2CC(c3ccc(-c4cccc5ncsc45)cc3)C2)cs1` [Compound B2, 3-(4-(Benzo[d]thiazol-7-yl)phenyl)-N-(2-ethynylthiazol-4-yl)azetidine-1-carboxamide], the EC50 was at most 200 nM.

Regarding `C#Cc1nc(NC(=O)c2ccc3ccccc3n2)cs1` [Compound E10, N-(2-Ethynylthiazol-4-yl)quinoline-2-carboxamide], the EC50 lay in the range of 1000 to 5000 nM.

In the case of `C#Cc1nc(C(=O)NCc2ccc3ccccc3n2)cs1` [Compound C44, 2-ethynyl-N-(quinolin-2-ylmethyl)thiazole-4-carboxamide], the EC50 is at most 200 nM.

In the case of `C#Cc1nc(NC(=O)NCc2ccc(-c3cccc(C(N)=O)c3)cc2)cs1` [Compound A10, 4′-((3-(2-Ethynylthiazol-4-yl)ureido)methyl)-[1,1′-biphenyl]-3-carboxamide], the EC50 was in the range of 200 to 1000 nM.

As for `C#Cc1nc(C(=O)N2CCN(c3ccc(C#N)cc3)CC2)cs1` [Compound D26, 4-(4-(2-Ethynylthiazole-4-carbonyl)piperazin-1-yl)benzonitrile], the EC50 was 200 to 1000 nM.

Take `C#Cc1nc(C(=O)NCc2ccc3ncsc3c2)cs1` [Compound C66, N-(Benzo[d]thiazol-6-ylmethyl)-2-ethynylthiazole-4-carboxamide]: the EC50 fell in the range of 1000 to 5000 nM.

Consider `C#Cc1nc(C(=O)NCCc2cccc(NC(C)=O)c2)cs1` [Compound C82, N-(3-Acetamidophenethyl)-2-ethynylthiazole-4-carboxamide], for which the EC50 was in the range of 1000 to 5000 nM.

On to `C#Cc1nc(C(=O)NCc2ccc(-c3cc[nH]n3)cc2)cs1` [Compound C91, N-(4-(1H-Pyrazol-3-yl)benzyl)-2-ethynylthiazole-4-carboxamide], for which the EC50 is 1000 to 5000 nM.

Regarding `C#Cc1ncc(C(=O)N2CCN(c3ccc(-c4cccc5ncsc45)cc3)CC2)s1` [Compound D7, (4-(4-(benzo[d]thiazol-7-yl)phenyl)piperazin-1-yl)(2-ethynylthiazol-5-yl)methanone], the EC50 was at most 200 nM.

On to `C#Cc1nc(C(=O)N(CCO)Cc2ccccc2)cs1` [Compound C133, N-Benzyl-2-ethynyl-N-(2-hydroxyethyl)thiazole-4-carboxamide], for which the EC50 was in the range of 1000 to 5000 nM.

Consider `C#Cc1nc(C(=O)N(CCC(=O)OCC)Cc2ccccc2)cs1` [Compound C116, Ethyl 3-(N-benzyl-2-ethynylthiazole-4-carboxamido)propanoate], for which the EC50 fell in the range of 1000 to 5000 nM.

Take `C#Cc1nc(NC(=O)NCc2ccc(-c3cccc4ncsc34)cc2)cs1` [Compound A6, 1-(4-(benzo[d]thiazol-7-yl)benzyl)-3-(2-ethynylthiazol-4-yl)urea]: the EC50 is at most 200 nM.

Turning to `C#Cc1nc(NC(=O)NCc2ccc(-c3cccc4ncnc(O)c34)cc2)cs1` [Compound A9, 1-(2-Ethynylthiazol-4-yl)-3-(4-(4-hydroxyquinazolin-5-yl)benzyl)urea], the EC50 is at most 200 nM.

For `C#Cc1nc(C(=O)NCc2cccc(C#N)c2)cs1` [Compound C127, N-(3-Cyanobenzyl)-2-ethynylthiazole-4-carboxamide], the EC50 was in the range of 200 to 1000 nM.

For `C#Cc1nc(NC(=O)c2ccccc2)cs1` [Compound E12, N-(2-Ethynylthiazol-4-yl)benzamide], the EC50 was in the range of 1000 to 5000 nM.

With `C#Cc1nc(C(=O)NCc2ccc(O)cc2)cs1` [Compound C121, 2-Ethynyl-N-(4-hydroxybenzyl)thiazole-4-carboxamide], the EC50 fell in the range of 1000 to 5000 nM.

`C#Cc1nc(C(=O)N2CCC(c3cccc(-c4cccc5ncsc45)c3)CC2)cs1` [Compound D15, (4-(3-(Benzo[d]thiazol-7-yl)phenyl)piperidin-1-yl)(2-ethynylthiazol-4-yl)-methanone]: the EC50 lay in the range of 200 to 1000 nM.
